Experimental data: patent publication US5436229A, “Bisulfite adducts of arginine aldehydes” (Eli Lilly and Company, priority 1994, dated 1995)
Non-standard residues stand in square brackets, D forms with d. Residues, ends and D or L forms follow the SMILES beside them. ξ: configuration not given here. dPip = O=C(O)[C@H]1CCCCN1; dThz = O=C(O)[C@H]1CSCN1; ξAze = O=C(O)C1CCN1

Key:
human thrombin = human thrombin (Homo sapiens, UniProt P00734); assay: Thrombin amidase inhibition (Kass), chromogenic substrate; assay type: biochemical
Outline: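 Purified human thrombin (8 NIH units/ml solution) mixed with compound in 50% aqueous methanol and 0.03M Tris, 0.15M NaCl, pH 7.4; chromogenic substrate (0.25 mg/ml solution) added, p-nitroaniline release followed at 405 nm. Free thrombin read from a standard curve; Kass (L/mol) is the mean over a range of compound concentrations.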

[1] = Index of Bioavailability (plasma TT AUC, oral vs i.v.); assay type: in vivo; settings: rats, oral vs i.v. bolus
Excerpt: Assays are done in duplicate and averaged.
Each sample population represents alternating sequential time points.

factor Xa = target: T1, factor Xa (Homo sapiens, UniProt P00742); assay: Serine protease inhibition (Kass), factor Xa; assay type: biochemical
T1 construct: Human factors X, Xa, IXa, XIa, and XIIa are purchased from Enzyme Research Laboratories; purchased Enzyme Research Laboratories, South Bend, Ind
Outline: (§1)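 Chromogenic p-nitroanilide substrate assays run as for human thrombin; trypsin with N-Benzoyl-Phe-Val-Arg-p-nitroanilide, human factor Xa with N-Benzoyl-Ile-Glu-Gly-Arg-p-nitroanilide. Values are association constants (Kass).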

Bovine trypsin = target: T2, Bovine trypsin (Bos taurus, UniProt P00760); assay: Serine protease inhibition (Kass), trypsin; assay type: biochemical
T2 construct: Bovine trypsin is purchased from Worthington Biochemicals; purchased Worthington Biochemicals, Freehold, N.J
T2 sequence (P00760 24-246): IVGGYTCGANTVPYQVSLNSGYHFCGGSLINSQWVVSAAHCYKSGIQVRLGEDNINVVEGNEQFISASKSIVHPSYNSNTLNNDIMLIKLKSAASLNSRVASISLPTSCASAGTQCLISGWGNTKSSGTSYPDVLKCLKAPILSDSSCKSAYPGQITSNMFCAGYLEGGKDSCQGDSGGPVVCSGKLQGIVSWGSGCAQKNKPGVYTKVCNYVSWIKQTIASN
Outline: as §1

Human plasmin = target: T3, Human plasmin (Homo sapiens, UniProt P00747); assay: Serine protease inhibition (Kass), plasmin; assay type: biochemical
T3 construct: Human plasmin is purchased from Boehringer Mannheim; purchased Boehringer Mannheim, Indianapolis, Ind
Outline: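 Chromogenic enzyme assays run as for human thrombin, giving association constants (Kass). Human plasmin used with H-D-Val-Leu-Lys-p-nitroanilide; t-PA (single-chain nt-PA or modified mt-PA6) with H-D-Ile-Pro-Arg-p-nitroanilide.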

[2] = target: T4, tissue plasminogen activator (t-PA) (Homo sapiens, UniProt P00750); assay: Serine protease inhibition (Kass), t-PA; assay type: biochemical
T4 construct: purchased American Diagnostica, Greenwich, Conn

human plasma [3] = assay: Human plasma anticoagulation, thrombin time (TT); assay type: biochemical
Outline: (§2)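 Compounds added across a wide concentration range to human plasma; APTT, PT and TT clotting times measured on a coagulation instrument, bovine thrombin used for plasma assays. Concentration doubling clotting time estimated by linear extrapolation.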

human plasma [4] = assay: Human plasma anticoagulation, activated partial thromboplastin time (APTT); assay type: biochemical
Outline: as §2

human plasma [5] = assay: Human plasma anticoagulation, prothrombin time (PT); assay type: biochemical
Outline: as §2

T4 sequence (P00750 36-562): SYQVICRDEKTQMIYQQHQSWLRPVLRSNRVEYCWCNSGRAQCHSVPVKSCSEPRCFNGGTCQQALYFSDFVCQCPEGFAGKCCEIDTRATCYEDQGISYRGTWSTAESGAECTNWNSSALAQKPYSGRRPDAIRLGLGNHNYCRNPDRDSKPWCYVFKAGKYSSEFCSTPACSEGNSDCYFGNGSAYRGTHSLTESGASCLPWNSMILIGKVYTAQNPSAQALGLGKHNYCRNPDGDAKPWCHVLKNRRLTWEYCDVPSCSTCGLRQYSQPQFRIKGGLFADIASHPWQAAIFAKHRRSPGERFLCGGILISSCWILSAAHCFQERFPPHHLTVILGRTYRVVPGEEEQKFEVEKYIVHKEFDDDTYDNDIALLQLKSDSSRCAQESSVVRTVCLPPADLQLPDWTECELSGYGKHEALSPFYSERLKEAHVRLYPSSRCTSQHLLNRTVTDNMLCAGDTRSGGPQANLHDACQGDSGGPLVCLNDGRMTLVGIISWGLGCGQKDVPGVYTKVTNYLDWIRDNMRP
T3 sequence (P00747 581-810 limits assumed): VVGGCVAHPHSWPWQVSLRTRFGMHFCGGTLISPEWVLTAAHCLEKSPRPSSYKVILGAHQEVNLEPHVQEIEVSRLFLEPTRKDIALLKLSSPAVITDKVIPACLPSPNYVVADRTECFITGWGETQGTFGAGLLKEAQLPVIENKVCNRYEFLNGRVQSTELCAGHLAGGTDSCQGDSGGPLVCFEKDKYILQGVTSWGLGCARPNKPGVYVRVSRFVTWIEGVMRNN
T3 sequence (P00747 97-580 partner limits assumed): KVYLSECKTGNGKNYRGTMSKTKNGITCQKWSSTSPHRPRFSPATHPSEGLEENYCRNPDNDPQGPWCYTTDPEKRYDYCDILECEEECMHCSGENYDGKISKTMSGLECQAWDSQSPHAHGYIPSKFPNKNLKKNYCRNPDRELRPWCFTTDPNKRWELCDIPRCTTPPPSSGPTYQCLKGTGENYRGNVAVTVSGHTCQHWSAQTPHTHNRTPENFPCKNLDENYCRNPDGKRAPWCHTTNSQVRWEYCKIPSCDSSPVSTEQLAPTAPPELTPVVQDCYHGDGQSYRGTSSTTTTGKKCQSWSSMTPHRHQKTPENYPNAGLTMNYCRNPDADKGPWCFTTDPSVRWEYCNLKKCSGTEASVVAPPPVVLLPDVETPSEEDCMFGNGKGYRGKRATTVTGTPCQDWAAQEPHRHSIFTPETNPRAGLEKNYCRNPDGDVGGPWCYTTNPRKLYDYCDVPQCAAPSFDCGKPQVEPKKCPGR
T1 sequence (P00742 235-488 limits assumed): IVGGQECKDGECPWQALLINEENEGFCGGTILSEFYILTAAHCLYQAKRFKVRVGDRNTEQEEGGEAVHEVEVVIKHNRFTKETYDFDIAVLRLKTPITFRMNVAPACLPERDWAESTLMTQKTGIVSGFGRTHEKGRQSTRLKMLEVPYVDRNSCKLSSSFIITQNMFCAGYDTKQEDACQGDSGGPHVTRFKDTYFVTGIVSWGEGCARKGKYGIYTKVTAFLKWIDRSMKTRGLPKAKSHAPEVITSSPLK
T1 sequence (P00742 41-179 partner limits assumed): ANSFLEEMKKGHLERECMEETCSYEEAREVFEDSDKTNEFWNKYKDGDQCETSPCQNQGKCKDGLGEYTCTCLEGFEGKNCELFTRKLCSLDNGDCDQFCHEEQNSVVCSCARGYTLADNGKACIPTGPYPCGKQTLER

What does the source list for `Cl.Cl.N=C(N)NCCC[C@@H](C=O)NC(=O)[C@@H]1CCCN1C(=O)C1NCCCC2CCCCC21` (mixture of isomers) [Example 8, DL-cis-3-aza-bicyclo[5.4.0]undecanyl-2-carbonyl-L-prolinyl-L-arginine aldehyde dihydrochloride]?
Kass Human Thrombin (human thrombin): 595 L/mol × 10^6; Percent Relative Activity (Index of Bioavailability) [1]: 43%

For `Cl.Cl.Cl.N=C(N)NCCC[C@@H](C=O)NC(=O)[C@@H]1CCCN1C(=O)[C@H]1C[C@@H](Oc2ccccc2)CN1.O` (relative stereo) [Example 12, D-Cis-(4-phenoxy)Prolinyl-L-Prolinyl-L-Arginine Aldehyde Trihydrochloride Monohydrate], which “Kass Human Thrombin” value (human thrombin) is on record?
The value was 25 L/mol × 10^6.

What about the “Percent Relative Activity (Index of Bioavailability)” value [1] of the same molecule?
The value was 16%.

Which “Kass Human Thrombin” value (human thrombin) does the source give for `Cl.Cl.N=C(N)NCCC[C@@H](C=O)NC(=O)C1CCN1C(=O)[C@H]1CCCCN1` (stereo partly drawn) [Example 3, D-Homoprolinyl-L-Azetidinyl-L-Arginine Aldehyde Dihydrochloride] (H-[dPip]-[ξAze]-Arg-aldehyde) here?
Its value is 45 L/mol × 10^6.

What about the “Percent Relative Activity (Index of Bioavailability)” value [1] of the same molecule?
Its value is 32%.

For `Cl.Cl.N=C(N)NCCC[C@@H](C=O)NC(=O)[C@@H]1CCCN1C(=O)[C@H]1CSCN1` [Example 4, D-Thiazolidinyl-4-Carbonyl-L-Prolinyl-L-Arginine Aldehyde Dihydrochloride] (H-[dThz]-Pro-Arg-aldehyde), which “Kass Human Thrombin” value (human thrombin) is on record?
Its value is 5 L/mol × 10^6.

What about the “Percent Relative Activity (Index of Bioavailability)” value [1] of the same molecule?
Its value is 16%.

With `Cl.Cl.N=C(N)NCCC[C@@H](C=O)NC(=O)[C@@H]1CCCN1C(=O)C1CNCCN1` (stereo partly drawn) [Example 9, D,L-Piperazin-2-yl-L-Prolinyl-L-Arginine Aldehyde Dihydrochloride] as the molecule, how does the “Kass Human Thrombin” value (human thrombin) read?
Its value is 121 L/mol × 10^6.

And the “Percent Relative Activity (Index of Bioavailability)” value [1]?
Its value is 19%.

What does the source list for `Cl.Cl.N=C(N)NCCC[C@@H](C=O)NC(=O)[C@@H]1CCCN1C(=O)C1NCCS1` (stereo partly drawn) [Example 10, D,L-Thiazolidinyl-2-carbonyl-L-prolinyl-L-arginine aldehyde dihydrochloride]?
Kass Human Thrombin (human thrombin): 27 L/mol × 10^6; Percent Relative Activity (Index of Bioavailability) [1]: 5%

With `CNC(CC(=O)N1CCC[C@H]1C(=O)N[C@H](C=O)CCCNC(=N)N)c1ccccc1.Cl.Cl.O.O` (stereo partly drawn) [Example 15, N-methyl-3-amino-3-phenylpropionyl-L-Prolinyl-L-Arginine Aldehyde Dihydrochloride Dihydrate] as the molecule, how does the “Kass Human Thrombin” value (human thrombin) read?
The value was 70 L/mol × 10^6.

And the “Percent Relative Activity (Index of Bioavailability)” value [1]?
Its value is 28%.

What does the source list for `CNC(CC(=O)N1CCC[C@H]1C(=O)N[C@H](C=O)CCCNC(=N)N)C1CCCCC1.CNC(CC(=O)N1CCC[C@H]1C(=O)N[C@H](C=O)CCCNC(=N)N)C1CCCCC1.Cl.Cl.Cl.Cl.O` (stereo partly drawn) [Example 16, N-methyl-3-amino-3-cyclohexyl propionyl-L-Pro-L-Arg aldehyde dihydrochloride hemihydrate]?
Kass Human Thrombin (human thrombin): 85 L/mol × 10^6; Percent Relative Activity (Index of Bioavailability) [1]: 19%

Which “Kass Human Thrombin” value (human thrombin) does the source give for `CNCC(Cc1ccccc1)C(=O)N1CCC[C@H]1C(=O)N[C@H](C=O)CCCNC(=N)N.Cl.Cl.O` (stereo partly drawn) [Example 17, N-Methyl-3-amino-2-benzylpropionyl-L-Pro-L-Arg Aldehyde Dihydrochloride Monohydrate] here?
The value was 12 L/mol × 10^6.

What about the “Percent Relative Activity (Index of Bioavailability)” value [1] of the same molecule?
Its value is 8%.

What does the source list for `Cl.Cl.Cl.N=C(N)NCCC[C@@H](C=O)NC(=O)[C@@H]1CCCN1C(=O)C1CCCCC1N.O` (stereo partly drawn) [Example 22, 2-aminocyclohexylcarbonyl-L-Pro-L-Arginine Aldehyde Trihydrochloride Monohydrate]?
Kass Human Thrombin (human thrombin): 39 L/mol × 10^6; Percent Relative Activity (Index of Bioavailability) [1]: 15%

Which “Kass Human Thrombin” value (human thrombin) does the source give for `CCNC(=O)N[C@H](Cc1ccccc1)C(=O)N1CCC[C@H]1C(=O)N[C@H](C=O)CCCNC(=N)N.Cl` [Example 76, N-(ethylaminocarbonyl)-D-phenylalanyl-L-Prolinyl-L-Arginine Aldehyde Hydrochloride] here?
The value was 25 L/mol × 10^6.

What about the “Kass Xa” value (factor Xa) of the same molecule?
Its value is 0.21 L/mol × 10^6.

What about the “Kass Trypsin” value (Bovine trypsin) of the same molecule?
The value was 60 L/mol × 10^6.

And the “Kass Plasmin” value (Human plasmin)?
The value was 2.0 L/mol × 10^6.

What about the “Kass t-PA” value [2] of the same molecule?
The value was 0.54 L/mol × 10^6.

What about the “2 × Clotting time TT” value (human plasma [3]) of the same molecule?
Its value is 63 ng/mL.

And the “2 × Clotting time APTT” value (human plasma [4])?
The value was 1,100 ng/mL.

What about the “2 × Clotting time PT” value (human plasma [5]) of the same molecule?
Its value is 1,700 ng/mL.

For `CCOC(=O)N[C@H](CC1CCCCC1)C(=O)N1CCC[C@H]1C(=O)N[C@H](C=O)CCCNC(=N)N.Cl` [Example 78, N-(ethoxycarbonyl)-D-cyclohexylalanyl-L-prolinyl-L-Arginine Aldehyde Hydrochloride], which “Kass Human Thrombin” value (human thrombin) is on record?
The value was 360 L/mol × 10^6.

What about the “Kass Xa” value (factor Xa) of the same molecule?
The value was 8.1 L/mol × 10^6.

And the “Kass Trypsin” value (Bovine trypsin)?
Its value is 140 L/mol × 10^6.

And the “Kass Plasmin” value (Human plasmin)?
Its value is 26 L/mol × 10^6.

What about the “Kass t-PA” value [2] of the same molecule?
The value was 0.75 L/mol × 10^6.

What about the “2 × Clotting time TT” value (human plasma [3]) of the same molecule?
The value was 48 ng/mL.

And the “2 × Clotting time APTT” value (human plasma [4])?
Its value is 410 ng/mL.

What about the “2 × Clotting time PT” value (human plasma [5]) of the same molecule?
The value was 890 ng/mL.

For `CN[C@@H](C(=O)N1CCC[C@H]1C(=O)N[C@@H](CCCNC(=N)N)C(O)S(=O)(=O)[O-])c1ccccc1.O=S(=O)(O)O.[Na+]` (stereo partly drawn) [Example 79, N-methyl-D-phenylglycinyl-L-prolinyl-NH-CH[(CH2)3 NH-C(NH)-NH2]-C(OH)SO3 Na.H2 SO4], which “Kass Human Thrombin” value (human thrombin) is on record?
Its value is 239 L/mol × 10^6.

And the “Kass Trypsin” value (Bovine trypsin)?
The value was 84 L/mol × 10^6.

What about the “Kass Plasmin” value (Human plasmin) of the same molecule?
Its value is 1.8 L/mol × 10^6.

And the “Kass t-PA” value [2]?
The value was 0.01 L/mol × 10^6.

And the “Percent Relative Activity (Index of Bioavailability)” value [1]?
Its value is 21%.

Which results are given for `N=C(N)NCCC[C@H](NC(=O)[C@@H]1CCCN1C(=O)C1CC2CCCCC2CN1)C(O)S(=O)(=O)[O-].O=S(=O)(O)O.[Na+]` (stereo partly drawn) [Example 80, D-1,2,3,4,4a,6,7,8,8a-Perhydroisoquinolin-3-yl carbonyl-L-prolinyl-L-arginine aldehyde bisulfite sulfate]?
Kass Human Thrombin (human thrombin): 62 L/mol × 10^6; Kass Trypsin (Bovine trypsin): 137 L/mol × 10^6; Kass Plasmin (Human plasmin): 2.7 L/mol × 10^6; Kass t-PA [2]: 0.01 L/mol × 10^6; Percent Relative Activity (Index of Bioavailability) [1]: 57%

With “D-Prolinyl-L-Prolinyl-L-Arginine Aldehyde Dihydrochloride [Example 2]” as the molecule, how does the “Kass Human Thrombin” value (human thrombin) read?
Its value is 12 L/mol × 10^6.

And the “Percent Relative Activity (Index of Bioavailability)” value [1]?
Its value is 36%.

For “N-methyl-D-Phg-Pro-Arg-H.H2 SO4 [79 (Step A)]”, which “Kass Human Thrombin” value (human thrombin) is on record?
Its value is 236 L/mol × 10^6.

What about the “Kass Trypsin” value (Bovine trypsin) of the same molecule?
Its value is 87 L/mol × 10^6.

And the “Kass Plasmin” value (Human plasmin)?
Its value is 1.3 L/mol × 10^6.

And the “Kass t-PA” value [2]?
The value was 0.01 L/mol × 10^6.

What about the “Percent Relative Activity (Index of Bioavailability)” value [1] of the same molecule?
The value was 18%.
